Data from PMC10440746, “Biosynthesis of 3,6-Dideoxy-heptoses for the Capsular Polysaccharides of Campylobacter jejuni” (Biochemistry, 2023).

What was measured:
C3-dehydratase (HS:5) = test system: T1, C3-dehydratase (HS:5); experiment: coupled glutamate dehydrogenase assay, NADPH oxidation at […] nm; type: biochemical, Campylobacter; conditions: pH 7.5, 25 °C; 0.2 mM PLP, 4.0 mM L-glutamate; 50 mM ammonium bicarbonate; apparent
T1 construct: full length, N-terminal 21-residue His6 tag (pET-28a), codon-optimised gene, E. coli BL21(DE3)

C5-epimerase (HS:5) = conditions: pH 7.5, 25 °C; 50 mM HEPES/KOH; 300 μM NADPH; apparent

| SMILES | Km (C3-dehydratase (HS:5)) | Km (C5-epimerase (HS:5)) |
| --- | --- | --- |
| Nc1nc2c(ncn2[C@@H]2O[C@H](COP(=O)(O)OP(=O)(O)O[C@H]3O[C@H](CCO)C(=O)[C@H](O)[C@@H]3O)[C@@H](O)[C@H]2O)c(=O)[nH]1 [compound 5, GDP-6-deoxy-4-keto-α-D-lyxo-heptose] | 840 ± 60 µM |  |
| Nc1nc2c(ncn2[C@@H]2O[C@H](COP(=O)(O)OP(=O)(O)O[C@H]3O[C@H](CCO)C(=O)C[C@@H]3O)[C@@H](O)[C@H]2O)c(=O)[nH]1 [compound 8, GDP-3,6-dideoxy-4-keto-α-D-threo-heptose] |  | 480 ± 80 µM |
